In patent US7674795B2, “Fluorene derivatives, composition containing said derivatives and the use thereof” (Aventis Pharma SA, priority 2005, dated 2010):
Where a name gives a salt, the structure may show the parent alone.

Columns and labels:
Hsp82 = Hsp82 (Saccharomyces cerevisiae, UniProt P02829); test: PK/LDH enzyme coupling test of the ATPase activity of Hsp82 (NADH decrease at 340 nm); type: biochemical; settings: 1 μM Hsp82, 250 μM ATP, 37° C., pyruvate kinase/lactate dehydrogenase coupling, read-out: Hsp82 ATPase IC50
Outline: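 Yeast Hsp82 ATPase was coupled to PK/LDH, with ADP formation followed continuously as NADH loss at 340 nm at 37 °C. The mixture was preincubated 30 min at 37 °C, and the reaction was started with compound at variable concentrations plus Hsp82 at 1 μM. Initial rates (μM ADP/min) came from the tangent slope at origin, expressed as % inhibition.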

Hsp82, sequence (P02829 whole entry): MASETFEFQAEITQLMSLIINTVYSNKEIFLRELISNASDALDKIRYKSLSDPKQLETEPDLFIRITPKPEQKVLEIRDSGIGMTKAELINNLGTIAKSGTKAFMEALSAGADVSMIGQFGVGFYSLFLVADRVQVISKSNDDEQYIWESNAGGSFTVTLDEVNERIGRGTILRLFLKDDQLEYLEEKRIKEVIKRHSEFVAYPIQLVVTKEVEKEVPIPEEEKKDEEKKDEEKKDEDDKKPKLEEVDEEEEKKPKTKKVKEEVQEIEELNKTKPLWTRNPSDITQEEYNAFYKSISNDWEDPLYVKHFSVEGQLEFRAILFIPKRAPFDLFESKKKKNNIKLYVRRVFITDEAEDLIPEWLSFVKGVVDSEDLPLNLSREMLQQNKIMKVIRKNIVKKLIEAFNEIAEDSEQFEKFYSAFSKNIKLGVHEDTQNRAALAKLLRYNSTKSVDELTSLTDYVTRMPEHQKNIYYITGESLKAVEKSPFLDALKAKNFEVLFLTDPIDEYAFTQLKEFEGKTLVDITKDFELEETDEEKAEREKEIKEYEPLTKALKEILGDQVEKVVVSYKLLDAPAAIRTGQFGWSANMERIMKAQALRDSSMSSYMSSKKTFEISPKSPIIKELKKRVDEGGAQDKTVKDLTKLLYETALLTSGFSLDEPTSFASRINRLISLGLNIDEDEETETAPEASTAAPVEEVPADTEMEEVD

melting point | IC50 (Hsp82) | SMILES
250 °C | 1 to 10 µM | Cc1cc(C(=O)NC2c3ccccc3-c3c(-c4nc5ccncc5[nH]4)cccc32)cc(Cl)n1 (racemic) [Example 123, 2-chloro-N-[4-(3H-imidazo[4,5-c]pyridin-2-yl)-9H-fluoren-9(R,S)-yl]-6-methyl-isonicotinamide]
225 °C (dec.) | < 1 µM | O=C(NC1c2ccccc2-c2c(-c3nc4ccncc4[nH]3)cccc21)c1c[nH]c2ncccc12 (racemic) [Example 99, [4-(3H-imidazo[4,5-c]pyridin-2-yl)-9H-fluoren(R,S)-9-yl]amide of 1H-pyrrolo[2,3-b]pyridine-3-carboxylic acid]
204 °C (dec.) | 1 to 10 µM | Cn1cc(C(=O)NC2c3ccccc3-c3c(-c4nc5ccncc5[nH]4)cccc32)c2cccnc21 (racemic) [Example 101, [4-(3H-imidazo[4,5-c]pyridin-2-yl)-9H-fluoren-9(R,S)-yl]amide of 1-methyl-1H-pyrrolo[2,3-b]pyridine-3-carboxylic acid]
230 to 235 °C | < 1 µM | O=C(NC1c2ccccc2-c2c(-c3nc4ccncc4[nH]3)cccc21)c1cccc2[nH]ncc12 (racemic) [Example 111, [4-(3H-imidazo[4,5-c]pyridin-2-yl)-9H-fluoren-9(R,S)-yl]amide of 1H-indazole-4-carboxylic acid]
236 to 238 °C | 1 to 10 µM | O=C1c2ccccc2-c2c1cccc2-c1nc2cnccc2[nH]1 [Example 1, 4-(3H-imidazo[4,5-c]pyridin-2-yl)-fluoren-9-one]
254 to 258 °C (dec.) | < 1 µM | O=C(NC1c2ccccc2-c2c(-c3nc4cnccc4[nH]3)cccc21)c1cccc2ncccc12 (racemic) [Example 14, [4-(3H-imidazo[4,5-c]pyridin-2-yl)-9H-fluoren-9(R,S)-yl]amide of quinoline-5-carboxylic acid]
194 °C | – | COc1ccc(C(=O)NC2c3ccccc3-c3c(-c4nc5ccncc5[nH]4)cccc32)cc1 (racemic) [Example 127, N-[4-(3H-imidazo[4,5-c]pyridin-2-yl)-9H-fluoren-9(R,S)-yl]-4-methoxybenzamide]
170 to 172 °C | 10 to 100 µM | NC1c2ccccc2-c2c(-c3nc4ccc(F)cc4[nH]3)cccc21 (racemic) [Example 71, 4-(6-fluoro-1H-benzimidazol-2-yl)-9H-fluoren-9(R,S)-ylamine]
– | 1 to 10 µM | Nc1ccc2c(C(=O)NC3c4ccccc4-c4c(-c5nc6cnccc6[nH]5)cccc43)cccc2c1 (racemic) [Example 54, [4-(3H-imidazo[4,5-c]pyridin-2-yl)-9H-fluoren-9(R,S)-yl]amide of 6-amino-naphthalene-1-carboxylic acid]
– | < 1 µM | O=C(NC1c2ccccc2-c2c(-c3nc4ccncc4[nH]3)cccc21)c1ccncc1O (racemic) [Example 103, 3-hydroxy-N-[4-(3H-imidazo[4,5-c]pyridin-2-yl)-9H-fluoren-9(R,S)-yl]-isonicotinamide]
– | 10 to 100 µM | NC(=O)CCNC(=O)NC1c2ccccc2-c2c(-c3nc4ccncc4[nH]3)cccc21 (racemic) [Example 79, trifluoroacetate of 3-{3-[4-(3H-imidazo[4,5-c]pyridin-2-yl)-9H-fluoren-9(R,S)-yl]-ureido}-propionamide]
– | 1 to 10 µM | O=C(OC1c2ccccc2-c2c(-c3nc4ccncc4[nH]3)cccc21)c1cccc2ncccc12 (racemic) [Example 124, 4-(3H-imidazo[4,5-c]pyridin-2-yl)-9H-fluoren-9(R,S)-yl of 5-quinolinecarboxylic acid]
– | < 1 µM | O=C(NC1c2ccccc2-c2c(-c3nc4ccncc4[nH]3)cccc21)c1ccc2[nH]nnc2c1 (racemic) [Example 41, [4-(3H-imidazo[4,5-c]pyridin-2-yl)-9H-fluoren-9(R,S)-yl]amide trifluoroacetate of 1H-benzotriazole-5-carboxylic acid]
– | 10 to 100 µM | CCOC(=O)CNC(=O)NC1c2ccccc2-c2c(-c3nc4ccncc4[nH]3)cccc21 (racemic) [Example 78, ethyl ester of {3-[4-(3H-imidazo[4,5-c]pyridin-2-yl)-9H-fluoren-9(R,S)-yl]-ureido}-acetic acid]
– | < 1 µM | O=C(NC1c2ccccc2-c2c(-c3nc4ccncc4[nH]3)cccc21)c1ccnc(Br)c1 (racemic) [Example 102, 2-bromo-N-[4-(3H-imidazo[4,5-c]pyridin-2-yl)-9H-fluoren-9(R,S)-yl]-isonicotinamide]
– | < 1 µM | O=C(NC1c2ccccc2-c2c(-c3nc4cnccc4[nH]3)cccc21)c1ccnc2ccccc12 (racemic) [Example 67, [4-(3H-imidazo[4,5-c]pyridin-2-yl)-9H-fluoren-9(R,S)-yl]amide of quinoline-4-carboxylic acid]

melting point | IC50 (Hsp82) | SMILES
– | 1 to 10 µM | COc1ccc(CC(=O)NC2c3ccccc3-c3c(-c4nc5cnccc5[nH]4)cccc32)cc1 (racemic) [Example 27, N-[4-(3H-imidazo[4,5-c]pyridin-2-yl)-9H-fluoren-9(R,S)-yl]-2-(4-methoxy-phenyl)-acetamide]
– | 10 to 100 µM | O=C1CNC(=O)N1C1c2ccccc2-c2c(-c3nc4ccncc4[nH]3)cccc21 (racemic) [Example 80, 3-[4-(3H-imidazo[4,5-c]pyridin-2-yl)-9H-fluoren-9(R,S)-yl]-imidazolidine-2,4-dione]
– | < 1 µM | S=C(NC1c2ccccc2-c2c(-c3nc4cnccc4[nH]3)cccc21)c1cccc2ncccc12 (racemic) [Example 55, [4-(3H-imidazo[4,5-c]pyridin-2-yl)-9H-fluoren-9(R,S)-yl]amide trifluoroacetate of quinoline-5-carbothioic acid]
– | < 1 µM | O/N=C1/c2ccccc2-c2c1cccc2-c1nc2cnccc2[nH]1 [Example 23, 4-(3H-imidazo[4,5-c]pyridin-2-yl)-fluoren-9-one oxime (E)]
– | 1 to 10 µM | CC(C)(C)OC(=O)N1CCC(C(=O)NC2c3ccccc3-c3c(-c4nc5ccncc5[nH]4)cccc32)CC1 (racemic) [Example 33, tert-butyl ester of 4-[4-(3H-imidazo[4,5-c]pyridin-2-yl)-9H-fluoren-9(R,S)-ylcarbamoyl]-piperidine-1-carboxylic acid]
– | 1 to 10 µM | O=C(NC1c2ccccc2-c2c(-c3nc4ccncc4[nH]3)cccc21)c1ccncc1Br (racemic) [Example 98, 3-bromo-N-[4-(3H-imidazo[4,5-c]pyridin-2-yl)-9H-fluoren-9(R,S)-yl]-isonicotinamide]
– | 10 to 100 µM | O=C(NC1c2ccccc2-c2c(-c3nc4cnccc4[nH]3)cccc21)c1nccc2ccccc12 (racemic) [Example 64, [4-(3H-imidazo[4,5-c]pyridin-2-yl)-9H-fluoren-9(R,S)-yl]amide of isoquinoline-1-carboxylic acid]
– | 1 to 10 µM | CC(C)(C)OC(=O)N[C@H](CC(=O)NC1c2ccccc2-c2c(-c3nc4cnccc4[nH]3)cccc21)C(N)=O (stereo partly drawn) [Example 59, tert-butyl ester of {(R)-1-carbamoyl-2-[4-(3H-imidazo[4,5-c]pyridin-2-yl)-9H-fluoren-9(R,S)-ylcarbamoyl]-ethyl}-carbamoic acid]
– | 10 to 100 µM | ON=C1c2ccccc2-c2c1cccc2-c1nc2ccc(O)cc2[nH]1 (racemic) [Example 107, 4-(6-hydroxy-1H-benzimidazol-2-yl)-fluoren-9-one oxime (Z,E)]
– | 10 to 100 µM | OC1c2ccccc2-c2c(-c3nc4cnccc4[nH]3)cccc21 (racemic) [Example 3, 4-(3H-imidazo[4,5-c]pyridin-2-yl)-9H-fluoren-9(R,S)-ol]
– | 10 to 100 µM | c1ccc2c(c1)Cc1cccc(-c3nc4cnccc4[nH]3)c1-2 [Example 7, 2-(9H-fluoren-4-yl)-3H-imidazo[4,5-c]pyridine]
– | 1 to 10 µM | O=C(NC1c2ccccc2-c2c(-c3nc4ccncc4[nH]3)cccc21)c1cc[nH]n1 (racemic) [Example 39, [4-(3H-imidazo[4,5-c]pyridin-2-yl)-9H-fluoren-9(R,S)-yl]amide trifluoroacetate of 1H-pyrazole-3-carboxylic acid]
– | 1 to 10 µM | CC(=O)NC1c2ccccc2-c2c(-c3nc4ccncc4[nH]3)cccc21 (racemic) [Example 72, N-[4-(3H-imidazo[4,5-c]pyridin-2-yl)-9H-fluoren-9(R,S)-yl]-acetamide]
– | 1 to 10 µM | O=C(Cc1n[nH]c(S)n1)NC1c2ccccc2-c2c(-c3nc4ccncc4[nH]3)cccc21 (racemic) [Example 42, N-[4-(3H-imidazo[4,5-c]pyridin-2-yl)-9H-fluoren-9(R,S)-yl]-2-(5-mercapto-4H-1,2,4-triazol-3-yl)-acetamide trifluoroacetate]
– | 10 to 100 µM | O=C(NC1c2ccccc2-c2c(-c3nc4ccncc4[nH]3)cccc21)c1ccc2[nH]c(=O)[nH]c2c1 (racemic) [Example 43, [4-(3H-imidazo[4,5-c]pyridin-2-yl)-9H-fluoren-9(R,S)-yl]amide of 2-oxo-2,3-dihydro-1H-benzimidazole-5-carboxylic acid]
– | 10 to 100 µM | O=CNC1c2ccccc2-c2c(-c3nc4cnccc4[nH]3)cccc21 (racemic) [Example 12, N-[4-(3H-imidazo[4,5-c]pyridin-2-yl)-9H-fluoren-9(R,S)-yl]-formamide]

SMILES | melting point | IC50 (Hsp82)
c1ccc2c(c1)-c1c(-c3nc4ccncc4[nH]3)cccc1C2NCc1cccc2ncccc12 (racemic) [Example 26, trifluoroacetate of N-[4-(3H-imidazo[4,5-c]pyridin-2-yl)-9H-fluoren-9(R,S)-yl]-quinolin-5-yl-methylamine] | – | 1 to 10 µM
